In BindingDB's records for doi:10.1021/jm500308c (University Jena, 2014):

Tests used:
[1] = molecular target: T1, Nuclear factor erythroid 2-related factor 2 (Homo sapiens, UniProt Q16236); assay: Activation of Nrf2 transcriptional activity in human LNCaP cells after 6 hrs by luciferase reporter gene assay relative to tert-butylhydroquinone
T1 sequence (Q16236 whole entry): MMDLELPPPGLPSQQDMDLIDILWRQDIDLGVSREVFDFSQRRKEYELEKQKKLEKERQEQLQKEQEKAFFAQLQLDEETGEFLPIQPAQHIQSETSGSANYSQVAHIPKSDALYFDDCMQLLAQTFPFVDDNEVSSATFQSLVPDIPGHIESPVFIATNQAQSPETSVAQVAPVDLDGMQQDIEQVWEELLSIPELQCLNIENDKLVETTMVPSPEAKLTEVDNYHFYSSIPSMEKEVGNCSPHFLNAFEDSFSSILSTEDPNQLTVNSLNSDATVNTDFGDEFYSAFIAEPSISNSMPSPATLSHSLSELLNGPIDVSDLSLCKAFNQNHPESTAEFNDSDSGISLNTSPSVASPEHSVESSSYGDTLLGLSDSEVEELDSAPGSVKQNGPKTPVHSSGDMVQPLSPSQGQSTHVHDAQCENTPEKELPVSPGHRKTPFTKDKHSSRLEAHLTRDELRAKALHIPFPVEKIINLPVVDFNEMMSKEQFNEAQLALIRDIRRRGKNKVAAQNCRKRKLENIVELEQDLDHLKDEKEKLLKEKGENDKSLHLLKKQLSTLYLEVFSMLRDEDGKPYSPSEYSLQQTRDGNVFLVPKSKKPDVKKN

[2] = molecular target: Signal transducer and activator of transcription 3 (Homo sapiens, UniProt P40763); assay: Inhibition of STAT3 transcriptional activity in human HaCaT cells after 6 hrs by luciferase reporter gene assay
Sequence of Signal transducer and activator of transcription 3 (P40763 whole entry): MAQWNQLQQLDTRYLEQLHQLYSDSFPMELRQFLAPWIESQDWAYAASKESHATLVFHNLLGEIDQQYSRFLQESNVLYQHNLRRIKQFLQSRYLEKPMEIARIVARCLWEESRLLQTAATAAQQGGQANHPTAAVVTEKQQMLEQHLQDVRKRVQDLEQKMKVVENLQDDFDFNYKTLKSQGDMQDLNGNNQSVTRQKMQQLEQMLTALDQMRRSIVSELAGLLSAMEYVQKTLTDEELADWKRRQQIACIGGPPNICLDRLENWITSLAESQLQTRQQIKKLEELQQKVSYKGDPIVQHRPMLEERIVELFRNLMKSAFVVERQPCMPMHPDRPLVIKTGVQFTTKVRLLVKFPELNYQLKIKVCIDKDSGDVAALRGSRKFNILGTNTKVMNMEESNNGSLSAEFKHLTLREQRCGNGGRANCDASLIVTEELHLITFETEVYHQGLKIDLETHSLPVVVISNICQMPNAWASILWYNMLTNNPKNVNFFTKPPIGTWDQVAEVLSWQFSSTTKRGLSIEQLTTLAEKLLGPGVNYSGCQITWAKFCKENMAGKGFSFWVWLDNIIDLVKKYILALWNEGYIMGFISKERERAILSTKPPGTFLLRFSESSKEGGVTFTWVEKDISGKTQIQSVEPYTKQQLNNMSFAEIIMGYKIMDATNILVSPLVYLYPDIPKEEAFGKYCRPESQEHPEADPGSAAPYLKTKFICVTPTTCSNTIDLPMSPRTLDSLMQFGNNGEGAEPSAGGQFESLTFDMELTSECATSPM

SMILES | EC50 [1] [µM] | IC50 [2] [µM]
COc1cc(/C=C/c2cc(/C=C/c3cc(CC=C(C)C)c(O)c(OC)c3)[nH]n2)cc(CC=C(C)C)c1O |  | > 50
COc1cc(/C=C/C(=O)/C=C/c2cc(CC=C(C)C)c(O)c(OC)c2)cc(CC=C(C)C)c1O |  | 22.4
COc1cc(CCC(=O)CC(=O)CCc2cc(CCC(C)C)c(O)c(OC)c2)cc(CCC(C)C)c1O |  | > 50
COc1cc(/C=C/c2cc(/C=C/c3ccc(O)c(OC)c3)[nH]n2)ccc1O [4-(2-(5-(4-hydroxy-3-methoxystyryl)-1H-pyrazol-3-yl)vinyl)-2-methoxyphenol] |  | 16.2
COc1cc(/C=C/C(=O)CC(=O)c2ccc(O)c(OC)c2)ccc1O |  | 35.7

Now from value to compound:

EC50 [1] [µM] | IC50 [2] [µM] | SMILES
9.9 |  | COc1cc(C=CC(=O)CC(=O)C=Cc2ccc(O)c(OC)c2)ccc1O
 | 18.2 | COc1cc(/C=C/c2cc(-c3ccc(O)c(OC)c3)[nH]n2)ccc1O
 | > 50 | COc1cc(CCC(=O)CC(=O)CCc2ccc(O)c(OC)c2)ccc1O [1,7-Bis-(4-hydroxy-3-methoxy-phenyl)-heptane-3,5-dione]
0.9 | 6 | COc1cc(/C=C/C(=O)/C=C/c2ccc(O)c(OC)c2)ccc1O [(1E,4E)-1,5-Bis-(4-hydroxy-3-methoxy-phenyl)-penta-1,4-dien-3-one]
3.1 | 19.4 | COc1cc(/C=C/C(=O)/C=C/c2cc(F)c(O)c(OC)c2)cc(F)c1O
 | > 50 | COc1cc(/C=C/C(=O)CC(=O)/C=C/c2cc(CC=C(C)C)c(O)c(OC)c2)cc(CC=C(C)C)c1O
8.6 | 15.6 | COc1cc(/C=C/C(=O)CC(=O)/C=C/c2cc(F)c(O)c(OC)c2)cc(F)c1O
